Experimental data reported in patent US20090215850A1, “METHOD FOR TREATING CB2 RECEPTOR MEDIATED PAIN” (priority 2008, published 2009).

Columns and labels:
male Sprague-Dawley rats [1] = experiment: Carrageenan model of inflammatory pain, radiant heat paw withdrawal, compound given before carrageenan (Example 1); type: in vivo, rat; details: seconds±SEM
Method: Intraplantar injection of carrageenan (Cg) in a rodent produces pronounced hypersensitivity to both thermal and mechanical stimuli. The effects of carrageenan are maximal 2-4 hr after administration.
(§1) To assess the ability of test compounds to reverse thermal hyperalgesia, baseline response latencies on a radiant heat (RH) paw stimulator were obtained before an intraplantar injection of carrageenan-λ (200 μL) in male Sprague-Dawley rats (250-350 g in treatment groups of 9 animals each). Only withdrawal responses that were quick hind paw movements (with or without licking of the hind paw) were recorded. Paw movements associated with locomotion or a shifting of weight were not considered a withdrawal response.
(§2) The weight of each animal was recorded on the day of the experiment. Each animal was placed on a warm (approx. body temperature, 30° C.) glass surface and allowed to acclimate to the test chamber for approximately 10-15 minutes. A radiant thermal stimulus (beam of light) was then focused on the sole of each hind paw in turn, and an initial (baseline) response time to thermal stimuli was recorded for each animal. The stimulus intensity (radiant heat at a setting of 5 Amps) that produced 10-15 sec baseline withdrawal latencies was used and a maximum cutoff of 20 sec was imposed. The light stimulus was automatically shut off by a photoelectric relay when the foot moved or when the cut-off time limit was reached.
One treatment group (8 animals each) was injected i.p. with vehicle (5% DMSO and 5% Tween-80 in sterile saline). The other treatment groups (8 animals each) were injected i.p. with 3, 10 or 30 mg/kg Compound 2.
One hour later, withdrawal latencies for the animals administered vehicle were recorded. After assessment, all animals were administered 1% carrageenan (200 μL in sterile saline) subcutaneously into the sub-plantar tissue of the left hind paw to stimulate an acute inflammatory reaction. Three hours later, the response time of the animals to the thermal stimulus was evaluated.

male Sprague-Dawley rats [2] = experiment: Carrageenan model of inflammatory pain, radiant heat paw withdrawal, compound given 2.5 hr after carrageenan (Example 2); type: in vivo, rat; details: 30 min after compound, seconds±SEM
Method: as §1, §2
The experiment of Example 1 is repeated with the exception that animals are first administered 1% carrageenan (200 μL in sterile saline) subcutaneously into the sub-plantar tissue of the left hind paw to stimulate an acute inflammatory reaction.
Two and a half hours later, withdrawal latencies are assessed (‘post-Cg’). One treatment group is then injected i.p. with vehicle (5% DMSO and 5% Tween-80 in sterile saline). The other treatment groups are injected i.p. with 3, 10 or 30 mg/kg of Compound 2. Thirty minutes after test compound administration withdrawal latencies are recorded.

CB2 receptor = target: T1, CB2 receptor (Rattus norvegicus, UniProt Q9QZN9); details: background statement; cited from earlier work
T1 sequence (Q9QZN9 1-360): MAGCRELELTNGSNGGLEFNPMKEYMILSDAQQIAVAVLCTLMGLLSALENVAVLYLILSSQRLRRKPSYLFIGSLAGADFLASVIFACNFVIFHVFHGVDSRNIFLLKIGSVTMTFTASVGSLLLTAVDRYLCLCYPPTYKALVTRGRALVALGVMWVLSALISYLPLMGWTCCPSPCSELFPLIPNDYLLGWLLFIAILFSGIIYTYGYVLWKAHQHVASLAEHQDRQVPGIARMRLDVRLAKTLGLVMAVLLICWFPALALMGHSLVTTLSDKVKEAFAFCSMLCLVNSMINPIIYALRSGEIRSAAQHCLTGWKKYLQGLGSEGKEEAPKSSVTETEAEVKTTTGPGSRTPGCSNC

Row | Structure (SMILES) | response time (withdrawal latency) to thermal stimulus, 3 hrs post Cg administration (male Sprague-Dawley rats [1]; 3 mg/kg i.p. 1 hr before 1% carrageenan) [s] | response time (withdrawal latency) to thermal stimulus, 3 hrs post Cg administration (male Sprague-Dawley rats [1]; 10 mg/kg i.p. 1 hr before 1% carrageenan) [s] | response time (withdrawal latency) to thermal stimulus, 3 hrs post Cg administration (male Sprague-Dawley rats [1]; 30 mg/kg i.p. 1 hr before 1% carrageenan) [s] | withdrawal latency, 3 hrs post Cg administration (male Sprague-Dawley rats [2]; 3 mg/kg i.p. 2.5 hr after 1% carrageenan) [s] | withdrawal latency, 3 hrs post Cg administration (male Sprague-Dawley rats [2]; 10 mg/kg i.p. 2.5 hr after 1% carrageenan) [s] | withdrawal latency, 3 hrs post Cg administration (male Sprague-Dawley rats [2]; 30 mg/kg i.p. 2.5 hr after 1% carrageenan) [s] | antinociception to thermal stimuli (CB2 receptor)
1 | O=C(NCC12CC3CC(CC(C3)C1)C2)c1nn(C2CCCCC2)c2c1CCCCCC2 [Compound 2, 1-cyclohexyl-4,5,6,7,8,9-hexahydro-1H-cyclooctapyrazole-3-carboxylic acid (adamantan-1-ylmethyl)-amide] | 5.11 ± 0.84 | 6.18 ± 0.91 | 14.41 ± 1.75 | 5.92 ± 1.15 | 6.88 ± 0.44 | 8.52 ± 1.08 | 
2 | CN1CCCCC1Cn1cc(C(=O)c2cc([N+](=O)[O-])ccc2I)c2ccccc21 (stereo not shown) [AM1241] |  |  |  |  |  |  | produces antinociception
